Assay results taken from the NIST ThermoML archive (doi:10.1021/je0601457).
Numbers after ± are expanded uncertainties.

Experiment: xn = mol fraction of the nth substance listed
Conditions: linear displacement

CC(=O)c1cnccn1 [2-acetylpyrazine] + O=C=O
Conditions | mass density [kg/m3]
294.75 K, Liquid, x1 = 0.007 | 799 ± 32
296.15 K, Liquid, x1 = 0.025 | 758 ± 30
302.35 K, Liquid, x1 = 0.025 | 790 ± 32
302.35 K, Liquid, x1 = 0.054 | 922 ± 37
303.35 K, Liquid, x1 = 0.007 | 724 ± 29
306.25 K, Liquid, x1 = 0.081 | 946 ± 38
309.45 K, Liquid, x1 = 0.138 | 1276 ± 53
310.35 K, Liquid, x1 = 0.054 | 837 ± 34
311.05 K, Liquid, x1 = 0.161 | 938 ± 38
312.75 K, Gas, x1 = 0.007 | 601 ± 24
312.95 K, Liquid, x1 = 0.114 | 1092 ± 44
313.15 K, Liquid, x1 = 0.194 | 954 ± 44
313.65 K, Gas, x1 = 0.081 | 911 ± 37
314.35 K, Liquid, x1 = 0.138 | 1258 ± 53
314.45 K, Gas, x1 = 0.025 | 815 ± 33
321.25 K, Gas, x1 = 0.054 | 785 ± 31
321.45 K, Liquid, x1 = 0.161 | 918 ± 41
321.95 K, Liquid, x1 = 0.194 | 939 ± 38
322.05 K, Liquid, x1 = 0.295 | 1090 ± 45
322.25 K, Liquid, x1 = 0.138 | 1238 ± 50
323.05 K, Liquid, x1 = 0.114 | 1061 ± 46
332.55 K, Liquid, x1 = 0.448 | 1063 ± 43
332.75 K, Liquid, x1 = 0.138 | 1216 ± 50
332.85 K, Gas, x1 = 0.054 | 739 ± 30
333.45 K, Liquid, x1 = 0.194 | 920 ± 37
333.45 K, Liquid, x1 = 0.295 | 1014 ± 41
334.45 K, Gas, x1 = 0.081 | 856 ± 35
334.95 K, Liquid, x1 = 0.114 | 1023 ± 41
337.95 K, Liquid, x1 = 0.161 | 887 ± 36
340.45 K, Gas, x1 = 0.025 | 718 ± 29
343.75 K, Liquid, x1 = 0.295 | 998 ± 40
345.75 K, Liquid, x1 = 0.138 | 1187 ± 48
346.35 K, Liquid, x1 = 0.944 | 1013 ± 41
348.05 K, Liquid, x1 = 0.448 | 1037 ± 41
348.55 K, Liquid, x1 = 0.114 | 993 ± 40
348.75 K, Gas, x1 = 0.054 | 702 ± 28
351.15 K, Liquid, x1 = 0.194 | 892 ± 36
353.55 K, Gas, x1 = 0.081 | 807 ± 33
353.75 K, Liquid, x1 = 0.161 | 863 ± 36
356.05 K, Liquid, x1 = 0.295 | 979 ± 40
360.95 K, Liquid, x1 = 0.944 | 996 ± 40
363.05 K, Liquid, x1 = 0.138 | 1148 ± 46
364.85 K, Liquid, x1 = 0.114 | 945 ± 38
366.25 K, Liquid, x1 = 0.448 | 1007 ± 40
367.85 K, Liquid, x1 = 0.194 | 861 ± 35
368.75 K, Liquid, x1 = 0.295 | 956 ± 39
368.85 K, Gas, x1 = 0.025 | 628 ± 25
369.55 K, Gas, x1 = 0.081 | 772 ± 32
370.85 K, Liquid, x1 = 0.161 | 832 ± 34
371.05 K, Liquid, x1 = 0.944 | 992 ± 40
371.25 K, Gas, x1 = 0.054 | 648 ± 26
